Assay results taken from patent publication US10562912B2 (C&C Research Laboratories, priority 2013, dated 2020).

How the values were obtained:
Format in all cases: cell-based
[1] = target: T1, STAT3 (Homo sapiens, UniProt P40763); assay: STAT3 reporter gene assay (luciferase), LNCaP stable cell line (pSTAT3-TA-luc), IL-6 stimulation
T1 construct: plasmid pSTAT3-TA-luc), which contains a stably operating STAT3 promoter; endogenous in cells
Procedure: 1-1) Experiment on the Inhibition of STAT3 Activity
A human prostate cancer cell line (LNCaP stable cell line; plasmid pSTAT3-TA-luc), which contains a stably operating STAT3 promoter, was cultured in RPMI1640 medium (Cat No. 11875, Life Technologies) containing 10% fetal bovine serum (FBS) (Cat No. SH30396, Thermo Scientific) and 150 μg/mL G-418 solution (Cat No. 04 727 894 001, Roche). The reporter gene assay using LNCaP stable cell line was performed in RPMI1640 medium containing 3% DCC-FBS without G-418 solution. LNCaP stable cells were plated in two (2) white 96-well plates with 30,000 cells/50 μL in each well. The cells were cultured at 37° C., under 5% CO2 for 24 hours, and then treated with the compounds listed in Examples which were diluted in various concentrations. Subsequently, IL-6 was added to each well with a final concentration of 10 ng/mL. Upon completion of the treatment with the compounds and IL-6, the cells were cultured at 37° C., under 5% CO2 for from 24 to 48 hours. The plates were observed under microscope and drug precipitation and particular findings were investigated and recorded.
The luciferase assay and the cell viability assay were performed respectively with one of the two plates. For the luciferase assay, the liquid media in the 96-well plate was removed, and then, 20 μL of passive cell lysis buffer was added to each well. After shaking the plate for 30 minutes, luciferase activities of each well were measured in a PHERAstar™ microplate reader (BMG LABTECH) using a luciferase assay system (Cat No. E1501, Promega). For the cell viability assay, the 96-well plate was placed at room temperature for 30 minutes, added with 20 μL/well of CellTiter-Glo solution (Cat No. G7573, Promega), and shaken for 10 minutes in order to measure cytotoxicity caused by the compounds listed in Examples with a PHERAstar™ microplate reader (BMG LABTECH). Wells without 0.1% DMSO and stimulation were used as a negative control and wells with 0.1% DMSO and stimulation were used as a positive control.

[2] = test system: LNCaP; assay: Cell growth inhibition assay, prostate cancer cell line LNCaP (medium with 10 ng/mL IL-6); conditions: Homo sapiens, medium supplemented with 10 ng/mL of IL-6, 10,000 cells/well
Procedure: (§1) The inhibitory effects of the compounds of the present invention against the growth of cancer cells were evaluated as shown below. The cancer cell lines including stomach cancer cell line (AGS), breast cancer cell lines (MDA-MB-231, MDA-MB-468, and BT-549), prostate cancer cell lines (LNCaP and DU-145), colon cancer cell line (HCT116), ovarian cancer cell line (SW626), liver cancer cell line (Hep3B), kidney cancer cell line (ACHN), lung cancer cell line (NCI-H23) and blood cancer cell lines (HEL92.1.7 and U266) were cultured under the protocol provided by each supplier. A medium supplemented with 10 ng/mL of IL-6 was used for LNCaP, a prostate cancer cell line, when treated with a drug. Each type of cells to be used in experiments were sub-cultured in a 96-well plate by counting the exact number of cells using Tali™ Image-based Cytometer (Life Technologies). In a 96-well plate, AGS, HCT116, and DU-145 were employed with 3,000 cells/well; NCI-H23, SW626, Hep3B, ACHN, BT-549, MDA-MB-231, HEL92.1.7, and U266 were employed with 5,000 cells/well; and LNCaP and MDA-MB-468 were employed with 10,000 cells/well. The cells were treated with the compounds listed in Examples which were diluted in various concentrations. Upon completion of the compounds treatment, AGS, HCT116, SW626, DU145, NCI-H23, Hep3B, ACHN, BT-549, LNCaP, HEL92.1.7, and U266 cells were cultured at 37° C. under 5% CO2 for from 72 to 96 hours, and MDA-MB-231 and MDA-MB-468 cells were cultured at 37° C. in air for from 72 to 96 hours. Subsequently, the cells were observed under microscope and drug precipitation and particular findings were investigated and recorded. And then, the 96-well plate was placed at room temperature for 30 minutes, added with 20 μL/well of CellTiter-Glo solution (Cat No. G7573, Promega) and shaken for 10 minutes, followed by being subjected to the measurement using PHERAstar™ microplate reader (BMG LABTECH) according to the supplier's general luminometer protocol. Wells where only culture liquid added without cell plating were used as a negative control, whereas wells where culture liquid containing 0.1% DMSO instead of the compounds listed in Examples were used as a positive control.

[3] = test system: DU-145; assay: Cell growth inhibition assay, prostate cancer cell line DU-145; conditions: Homo sapiens, DU-145 prostate cancer cell line
Procedure: as §1

T1 sequence (P40763 whole entry): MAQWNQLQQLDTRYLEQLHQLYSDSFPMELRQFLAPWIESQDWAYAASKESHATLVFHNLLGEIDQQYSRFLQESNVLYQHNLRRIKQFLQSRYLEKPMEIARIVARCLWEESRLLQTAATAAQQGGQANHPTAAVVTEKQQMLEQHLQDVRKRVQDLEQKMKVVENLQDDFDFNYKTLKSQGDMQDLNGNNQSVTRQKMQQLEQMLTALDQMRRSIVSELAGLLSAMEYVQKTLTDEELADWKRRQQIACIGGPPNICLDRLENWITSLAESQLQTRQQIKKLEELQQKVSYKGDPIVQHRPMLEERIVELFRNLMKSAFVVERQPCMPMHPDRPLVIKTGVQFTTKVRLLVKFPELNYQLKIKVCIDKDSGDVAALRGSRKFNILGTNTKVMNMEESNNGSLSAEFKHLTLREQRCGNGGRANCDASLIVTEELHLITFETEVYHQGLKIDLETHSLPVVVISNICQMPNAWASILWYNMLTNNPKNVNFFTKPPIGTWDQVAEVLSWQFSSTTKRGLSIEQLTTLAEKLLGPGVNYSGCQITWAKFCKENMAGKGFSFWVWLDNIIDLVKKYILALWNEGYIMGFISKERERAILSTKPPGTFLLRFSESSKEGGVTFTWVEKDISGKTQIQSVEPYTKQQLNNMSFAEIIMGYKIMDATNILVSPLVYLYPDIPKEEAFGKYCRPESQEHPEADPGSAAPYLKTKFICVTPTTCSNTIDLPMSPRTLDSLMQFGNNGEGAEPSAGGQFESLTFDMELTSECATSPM

IC50 [1]	IC50 [2]	IC50 [3]	SMILES
0.52 µM	0.11 µM	0.031 µM	COc1cccc(C(C)(C)c2cc(Cl)cc(NC(=O)c3cc4cc(NS(C)(=O)=O)ccc4s3)c2)c1 [Example 106, N-(3-chloro-5-(2-(3-methoxyphenyl)propan-2-yl)phenyl)-5-(methylsulfonamido)benzo[b]thiophene-2-carboxamide]
0.085 µM	0.26 µM	0.1 µM	CC(C)Oc1cc(CN2CCN(S(=O)(=O)N(C)C)CC2)cc(C(C)(C)c2cc(Cl)cc(NC(=O)c3cc4cc(NS(C)(=O)=O)ccc4s3)c2)c1 [Example 131, N-(3-chloro-5-(2-(3-((4-(N,N-dimethylsulfamoyl)piperazin-1-yl)methyl)-5-isopropoxyphenyl)propan-2-yl)phenyl)-5-(methylsulfonamido)benzo[b]thiophene-2-carboxamide]
3.3 µM	> 1.1 µM	> 1.1 µM	C[S+]([O-])c1ccc(C(C)(C)c2cc(Cl)cc(NC(=O)c3cc4cc(NS(C)(=O)=O)ccc4s3)c2)cc1 (stereo not drawn) [Example 160, N-(3-chloro-5-(2-(4-(methylsulfinyl)phenyl)propan-2-yl)phenyl)-5-(methylsulfonamido)benzo[b]thiophene-2-carboxamide]
0.034 µM	0.037 µM	0.01 µM	COc1cc(OC(F)(F)F)cc(C(C)(C)c2cc(F)cc(NC(=O)c3cc4cc(NS(C)(=O)=O)ccc4s3)c2)c1 [Example 63, N-(3-fluoro-5-(2-(3-methoxy-5-(trifluoromethoxy)phenyl)propan-2-yl)phenyl)-5-(methylsulfonamido)benzo[b]thiophene-2-carboxamide]
0.049 µM	0.073 µM	0.06 µM	CS(=O)(=O)Nc1ccc2sc(C(=O)Nc3cc(Cl)cc(C4(c5ccc(Cl)cc5)CC4)c3)cc2c1 [Example 432, N-(3-chloro-5-(1-(4-chlorophenyl)cyclopropyl)phenyl)-5-(methylsulfonamido)benzo[b]thiophene-2-carboxamide]
0.075 µM	0.11 µM	0.049 µM	CS(=O)(=O)Nc1cc2cc(C(=O)Nc3cc(Cl)cc(Oc4nccs4)c3)sc2cc1Cl [Example 471, 6-chloro-N-(3-chloro-5-(thiazol-2-yloxy)phenyl)-5-(methylsulfonamido)benzo[b]thiophene-2-carboxamide]
0.096 µM	0.14 µM	0.059 µM	Cn1cccc1-c1cc(Cl)cc(NC(=O)c2cc3cc(NS(C)(=O)=O)ccc3s2)c1 [Example 334, N-(3-chloro-5-(1-methyl-1H-pyrrol-2-yl)phenyl)-5-(methylsulfonamido)benzo[b]thiophene-2-carboxamide]
2.1 µM		0.17 µM	CC(C)Oc1cc(OC(F)(F)F)cc(C(C)(C)c2cc(Cl)cc(NC(=O)c3cc4c(s3)CCN(S(C)(=O)=O)C4)c2)c1 [Example 97, N-(3-chloro-5-(2-(3-isopropoxy-5-(trifluoromethoxy)phenyl)propan-2-yl)phenyl)-5-(methylsulfonyl)-4,5,6,7-tetrahydrothieno[3,2-c]pyridine-2-carboxamide]
0.016 µM			CS(=O)(=O)Nc1cc2cc(C(=O)Nc3cc(Cl)nc(Oc4ccc(Cl)cc4)c3)sc2cc1Cl [Example 490, 6-chloro-N-(2-chloro-6-(4-chlorophenoxy)pyridin-4-yl)-5-(methylsulfonamido)benzo[b]thiophene-2-carboxamide]
0.018 µM			CS(=O)(=O)Nc1cc2cc(C(=O)Nc3cc(Cl)nc(Oc4ccc(C(F)(F)F)nc4)c3)sc2cc1Cl [Example 494, 6-chloro-N-(2-chloro-6-((6-(trifluoromethyl)pyridin-3-yl)oxy)pyridin-4-yl)-5-(methylsulfonamido)benzo[b]thiophene-2-carboxamide]
0.14 µM			CS(=O)(=O)Nc1ccc2sc(C(=O)Nc3cc(Cl)nc(Oc4ccc(C(F)(F)F)nc4)c3)cc2c1 [Example 493, N-(2-chloro-6-((6-(trifluoromethyl)pyridin-3-yl)oxy)pyridin-4-yl)-5-(methylsulfonamido)benzo[b]thiophene-2-carboxamide]
0.009 µM			CS(=O)(=O)Nc1cc2cc(C(=O)Nc3cc(Cl)nc(Oc4ccc(C(F)(F)F)cc4)c3)sc2cc1Cl [Example 496, 6-chloro-N-(2-chloro-6-(4-(trifluoromethyl)phenoxy)pyridin-4-yl)-5-(methylsulfonamido)benzo[b]thiophene-2-carboxamide]
0.08 µM			CS(=O)(=O)Nc1ccc2sc(C(=O)Nc3cc(Cl)nc(Oc4ccc(C(F)(F)F)cc4)c3)cc2c1 [Example 495, N-(2-chloro-6-(4-(trifluoromethyl)phenoxy)pyridin-4-yl)-5-(methylsulfonamido)benzo[b]thiophene-2-carboxamide]
0.13 µM			CS(=O)(=O)Nc1ccc2sc(C(=O)Nc3cc(Cl)nc(Oc4ccc(Cl)nc4)c3)cc2c1 [Example 491, N-(2-chloro-6-((6-chloropyridin-3-yl)oxy)pyridin-4-yl)-5-(methylsulfonamido)benzo[b]thiophene-2-carboxamide]
1.1 µM	2 µM		CS(=O)(=O)Nc1ccc2[nH]c(C(=O)Nc3cccc(-c4ccccc4C(F)(F)F)c3)cc2c1 [Example 259, 5-(methylsulfonamido)-N-(2′-(trifluoromethyl)-[1,1′-biphenyl]-3-yl)-1H-indole-2-carboxamide]
0.064 µM		0.005 µM	CC(C)(c1cccc(F)c1)c1cc(Cl)cc(NC(=O)c2cc3cc(NS(C)(=O)=O)ccc3s2)c1 [Example 65, N-(3-chloro-5-(2-(3-fluorophenyl)propan-2-yl)phenyl)-5-(methylsulfonamido)benzo[b]thiophene-2-carboxamide]
0.008 µM			CS(=O)(=O)Nc1cc2cc(C(=O)Nc3cc(Cl)nc(Oc4ccc(Cl)nc4)c3)sc2cc1Cl [Example 492]
4.6 µM		> 1.1 µM	CC(C)Oc1cc(OC(F)(F)F)cc(C(C)(C)c2cc(Cl)cc(NC(=O)c3cc(NS(C)(=O)=O)cs3)c2)c1 [Example 102, N-(3-chloro-5-(2-(3-isopropoxy-5-(trifluoromethoxy)phenyl)propan-2-yl)phenyl)-4-(methylsulfonamido)thiophene-2-carboxamide]
0.06 µM			COc1cc2sc(C(=O)Nc3cc(Cl)cc(Oc4ccc(Cl)cc4)c3)cc2cc1NS(C)(=O)=O [Example 498, N-(3-chloro-5-(4-chlorophenoxy)phenyl)-6-methoxy-5-(methylsulfonamido)benzo[b]thiophene-2-carboxamide]
0.005 µM			COc1cc2sc(C(=O)Nc3cc(Cl)cc(C(C)(C)c4ccc(Cl)cc4)c3)cc2cc1NS(C)(=O)=O [Example 497, N-(3-chloro-5-(2-(4-chlorophenyl)propan-2-yl)phenyl)-6-methoxy-5-(methylsulfonamido)benzo[b]thiophene-2-carboxamide]

SMILES	IC50 [1]	IC50 [2]	IC50 [3]
CC(C)Oc1cc(OC(F)(F)F)cc(C(C)(C)c2cc(Br)cc(NC(=O)c3cc4cc(OP(=O)(O)O)ccc4s3)c2)c1 [Example 192, 2-((3-bromo-5-(2-(3-isopropoxy-5-(trifluoromethoxy)phenyl)propan-2-yl)phenyl)carbamoyl)benzo[b]thiophen-5-yl dihydrogen phosphate]	0.75 µM		
